The target of one experiment is T1, FGFR4 (Homo sapiens, UniProt P22455).
T1 construct: made in house; host or cells: E. coli (BL21-derived), T7 phage
Briefly: Kinase binding assay (kinase-tagged T7 phage, affinity beads, qPCR), Kd. Particulars: read-out: FGFR4 (Kd nM). The procedure, abridged: (§1)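 T7 phage displaying each kinase, grown in a BL21-derived E. coli host at 32° C until lysis, competed with test compound for biotinylated ligand immobilised on streptavidin beads. Bead-bound kinase was eluted and quantified by qPCR. Kd came from an 11-point 3-fold dilution series fitted to the Hill equation with slope fixed at −1.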

The target of a further experiment is T2, FGFR1 (Homo sapiens, UniProt P11362).
T2 construct: made in house; host or cells: E. coli (BL21-derived), T7 phage
The experiment is described as above. Particulars: read-out: FGFR1 (Kd nM). The procedure, abridged:
as §1

Another experiment addresses T3, FGFR2 (Homo sapiens, UniProt P21802).
T3 construct: made in house; host or cells: E. coli (BL21-derived), T7 phage
The description is as above. The following applies: read-out: FGFR2 (Kd nM). The essentials:
as §1

A further experiment addresses T4, FGFR3 (Homo sapiens, UniProt P22607).
T4 construct: made in house; host or cells: E. coli (BL21-derived), T7 phage
The description is as above. Particulars: read-out: FGFR3 (Kd nM). The procedure, abridged: as §1

The next experiment has as its target T5, FGFR3 (V555M) (Homo sapiens, UniProt P22607, V555M).
T5 construct: made in house; host or cells: E. coli (BL21-derived), T7 phage
The experiment is described as above. The following applies: V555M mutant; read-out: FGFR3 (V555M) (Kd nM). The procedure, abridged:
as §1

For experiment [1], the system named is KG-1 cell line (FGFR 1-fusion). The experiment can be described thus: Cancer cell line cell viability assay (Cell Titer-Glo), 72 hr. The following applies: Homo sapiens, KG-1, KG-1 cell line (FGFR1-fusion). It counts as cell-based. The essentials: (§2)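 Cells seeded at 5,000-20,000/well, incubated overnight, then treated with a 9-dose, 4-fold dilution series from 3 μM in triplicate at 37° C, 5% CO2. Viability read by Cell Titer-Glo 2.0 luminescence as percent of DMSO control; IC50 from 4-parameter variable-slope sigmoidal fit.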

Experiment [2] concerns KATO-III cell line (FGFR2 amplification). The description is as above. Particulars: Homo sapiens, KATO III. The format is cell-based. The essentials:
as §2

The test system of experiment [3] is RT112/84 cell line (FGFR3-fusion). Described as above. The following applies: Homo sapiens, RT112/84, RT112/84 cell line (FGFR3-fusion). The format is cell-based. The procedure, abridged:
as §2

Molecules are shown by their SMILES. Bounds are passed on as bounds.

T4 sequence (P22607 23-806): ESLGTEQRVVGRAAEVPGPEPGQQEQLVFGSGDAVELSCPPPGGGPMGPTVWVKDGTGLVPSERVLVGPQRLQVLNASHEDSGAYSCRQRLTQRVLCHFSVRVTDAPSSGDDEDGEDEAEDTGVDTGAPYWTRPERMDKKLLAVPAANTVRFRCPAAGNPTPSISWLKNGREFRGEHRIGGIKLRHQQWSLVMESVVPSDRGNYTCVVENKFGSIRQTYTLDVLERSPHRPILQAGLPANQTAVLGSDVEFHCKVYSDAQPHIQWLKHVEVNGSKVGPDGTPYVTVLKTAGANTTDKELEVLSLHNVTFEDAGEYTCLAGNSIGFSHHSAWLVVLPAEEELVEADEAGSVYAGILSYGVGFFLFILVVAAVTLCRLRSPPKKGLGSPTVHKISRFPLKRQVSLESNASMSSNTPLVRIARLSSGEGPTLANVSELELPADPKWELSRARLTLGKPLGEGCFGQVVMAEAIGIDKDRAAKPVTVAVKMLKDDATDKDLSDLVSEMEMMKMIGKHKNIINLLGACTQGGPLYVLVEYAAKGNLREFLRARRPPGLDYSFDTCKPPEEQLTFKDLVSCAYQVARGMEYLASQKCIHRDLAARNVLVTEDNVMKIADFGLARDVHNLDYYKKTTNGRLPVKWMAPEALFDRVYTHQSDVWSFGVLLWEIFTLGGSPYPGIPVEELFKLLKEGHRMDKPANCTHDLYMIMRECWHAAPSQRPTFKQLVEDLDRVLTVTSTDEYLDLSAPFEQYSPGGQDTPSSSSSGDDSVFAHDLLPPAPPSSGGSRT
T2 sequence (P11362 22-822): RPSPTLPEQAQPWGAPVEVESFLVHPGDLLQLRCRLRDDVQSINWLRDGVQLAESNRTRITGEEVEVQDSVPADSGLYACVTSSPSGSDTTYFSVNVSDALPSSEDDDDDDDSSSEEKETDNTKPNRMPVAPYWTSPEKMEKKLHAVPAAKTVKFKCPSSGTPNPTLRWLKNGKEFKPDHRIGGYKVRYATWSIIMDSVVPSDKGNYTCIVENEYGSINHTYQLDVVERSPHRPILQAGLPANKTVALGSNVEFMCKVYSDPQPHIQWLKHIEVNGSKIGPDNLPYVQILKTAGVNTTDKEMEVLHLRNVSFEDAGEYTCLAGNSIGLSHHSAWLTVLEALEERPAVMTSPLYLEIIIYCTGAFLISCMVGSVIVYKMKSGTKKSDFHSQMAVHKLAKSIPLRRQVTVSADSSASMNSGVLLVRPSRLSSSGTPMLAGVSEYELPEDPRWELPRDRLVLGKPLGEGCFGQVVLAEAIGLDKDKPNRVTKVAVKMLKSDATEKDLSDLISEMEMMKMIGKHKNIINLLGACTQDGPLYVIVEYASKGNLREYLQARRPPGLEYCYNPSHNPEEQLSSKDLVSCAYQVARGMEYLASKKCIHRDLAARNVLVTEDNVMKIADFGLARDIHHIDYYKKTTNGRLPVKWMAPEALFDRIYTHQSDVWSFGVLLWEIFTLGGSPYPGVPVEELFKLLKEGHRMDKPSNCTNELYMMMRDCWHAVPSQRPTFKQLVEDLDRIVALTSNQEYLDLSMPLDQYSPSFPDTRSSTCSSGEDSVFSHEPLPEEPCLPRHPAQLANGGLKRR
T5 sequence (P22607 23-806 V555M): as the sequence (P22607 23-806) above, with V533M counted along it
T1 sequence (P22455 22-802): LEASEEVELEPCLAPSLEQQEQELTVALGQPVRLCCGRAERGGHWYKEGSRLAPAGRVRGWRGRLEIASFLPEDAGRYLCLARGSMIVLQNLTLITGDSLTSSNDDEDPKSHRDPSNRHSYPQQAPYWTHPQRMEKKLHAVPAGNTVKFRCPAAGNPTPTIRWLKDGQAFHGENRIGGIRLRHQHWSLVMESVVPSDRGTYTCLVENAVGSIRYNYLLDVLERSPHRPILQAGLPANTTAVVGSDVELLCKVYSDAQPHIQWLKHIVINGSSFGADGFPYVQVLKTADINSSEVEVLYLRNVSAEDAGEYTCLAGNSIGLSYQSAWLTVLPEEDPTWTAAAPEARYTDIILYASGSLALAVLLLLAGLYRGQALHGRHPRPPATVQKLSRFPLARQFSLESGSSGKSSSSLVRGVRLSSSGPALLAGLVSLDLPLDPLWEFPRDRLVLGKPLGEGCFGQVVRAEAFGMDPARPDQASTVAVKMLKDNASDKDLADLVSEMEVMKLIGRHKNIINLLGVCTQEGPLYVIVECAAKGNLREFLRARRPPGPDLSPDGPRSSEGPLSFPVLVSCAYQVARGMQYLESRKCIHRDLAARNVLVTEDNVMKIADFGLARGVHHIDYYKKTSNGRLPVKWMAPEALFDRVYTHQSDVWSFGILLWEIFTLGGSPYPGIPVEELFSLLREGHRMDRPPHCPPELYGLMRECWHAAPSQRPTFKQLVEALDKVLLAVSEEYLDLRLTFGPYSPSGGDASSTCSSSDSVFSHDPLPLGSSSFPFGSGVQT
T3 sequence (P21802 22-821): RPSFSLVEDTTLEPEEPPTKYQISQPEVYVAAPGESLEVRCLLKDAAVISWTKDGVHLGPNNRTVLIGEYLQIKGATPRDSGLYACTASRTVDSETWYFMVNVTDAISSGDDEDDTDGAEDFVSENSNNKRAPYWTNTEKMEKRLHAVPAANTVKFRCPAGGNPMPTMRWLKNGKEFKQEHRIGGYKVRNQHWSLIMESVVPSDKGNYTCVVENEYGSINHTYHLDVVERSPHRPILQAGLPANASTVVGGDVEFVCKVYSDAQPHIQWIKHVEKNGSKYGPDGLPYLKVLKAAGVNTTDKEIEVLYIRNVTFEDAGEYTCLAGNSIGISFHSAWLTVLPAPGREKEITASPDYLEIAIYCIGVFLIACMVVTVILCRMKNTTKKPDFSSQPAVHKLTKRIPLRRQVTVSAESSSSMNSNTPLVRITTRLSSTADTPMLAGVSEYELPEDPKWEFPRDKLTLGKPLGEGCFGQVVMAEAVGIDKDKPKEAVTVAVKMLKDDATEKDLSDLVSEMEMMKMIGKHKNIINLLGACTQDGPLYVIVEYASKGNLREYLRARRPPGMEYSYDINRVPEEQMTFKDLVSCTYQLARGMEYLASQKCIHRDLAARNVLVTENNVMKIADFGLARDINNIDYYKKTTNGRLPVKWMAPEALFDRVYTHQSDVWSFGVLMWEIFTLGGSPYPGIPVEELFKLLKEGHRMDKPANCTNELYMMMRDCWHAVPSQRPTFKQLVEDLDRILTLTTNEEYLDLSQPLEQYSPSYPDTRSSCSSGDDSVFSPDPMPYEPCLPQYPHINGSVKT

Regarding `COc1cc2[nH]nc(-c3cnc(N4CC(C)(NCC5(O)CC5)C4)c(F)c3)c2cc1O[C@H](C)c1c(Cl)cncc1Cl` [Example 119, (R)-1-(((1-(5-(5-(1-(3,5-dichloropyridin-4-yl)ethoxy)-6-methoxy-1H-indazol-3-yl)-3-fluoropyridin-2-yl)-3-methylazetidin-3-yl)amino)methyl)cyclo-propan-1-ol], the Kd on FGFR4, on FGFR1, at FGFR2, at FGFR3 and at FGFR3 (V555M) was 1 to 50 nM each time. The IC50 in experiment [1], in experiment [2] and in experiment [3] was 0.1 to 50 nM each time.
In the case of `COc1cc2[nH]nc(-c3cnc(N4CC(C)(NCC5CC5)C4)c(F)c3)c2cc1O[C@H](C)c1c(Cl)cncc1Cl` [Example 126, (R)-N-(cyclopropylmethyl)-1-(5-(5-(1-(3,5-dichloropyridin-4-yl)ethoxy)-6-methoxy-1H-indazol-3-yl)-3-fluoropyridin-2-yl)-3-methylazetidin-3-amine], the dissociation constant (Kd) on FGFR4, at FGFR1, on FGFR2, on FGFR3 and at FGFR3 (V555M) was 1 to 50 nM each time. Also, the IC50 in experiment [1], in experiment [2] and in experiment [3] was 0.1 to 50 nM each time.
Take `CC(C)NC1(C)CN(c2ncc(-c3n[nH]c4cc(F)c(O[C@H](C)c5c(Cl)cncc5Cl)cc34)cc2F)C1` [Example 127, (R)-1-(5-(5-(1-(3,5-dichloropyridin-4-yl)ethoxy)-6-fluoro-1H-indazol-3-yl)-3-fluoropyridin-2-yl)-N-isopropyl-3-methylazetidin-3-amine]: the Kd at FGFR4, on FGFR1, at FGFR2, at FGFR3 and at FGFR3 (V555M) was 1 to 50 nM in each case. Besides, the IC50 was 50 to 200 nM in experiment [1], 50 to 200 nM in experiment [2] and 0.1 to 50 nM in experiment [3].
In the case of `C[C@@H](Oc1cc2c(-c3cnc(N4CC(C)(N5CCCC5)C4)c(F)c3)n[nH]c2cc1F)c1c(Cl)cncc1Cl` [Example 128, (R)-5-(1-(3,5-dichloropyridin-4-yl)ethoxy)-6-fluoro-3-(5-fluoro-6-(3-methyl-3-(pyrrolidin-1-yl)azetidin-1-yl)pyridin-3-yl)-1H-indazole], the Kd at FGFR4, at FGFR1, on FGFR2, at FGFR3 and on FGFR3 (V555M) was 1 to 50 nM throughout. The IC50 in experiment [1], in experiment [2] and in experiment [3] was 0.1 to 50 nM each time.
Take `C[C@@H](Oc1cc2c(-c3cnc(N4CC(C)(NCC5CC5)C4)c(F)c3)n[nH]c2cc1F)c1c(Cl)cncc1Cl` [Example 132, N-(cyclopropylmethyl)-1-[5-[5-[(1R)-1-(3,5-dichloro-4-pyridyl)ethoxy]-6-fluoro-1H-indazol-3-yl]-3-fluoro-2-pyridyl]-3-methyl-azetidin-3-amine]: the Kd on FGFR4, at FGFR1, at FGFR2, on FGFR3 and at FGFR3 (V555M) was 1 to 50 nM in each case. Moreover, the IC50 in experiment [1] was 50 to 200 nM; in experiment [2], 50 to 200 nM; in experiment [3] it was 0.1 to 50 nM.
As for `CCNC1(C)CN(c2ncc(-c3n[nH]c4ccc(O[C@H](C)c5c(Cl)cncc5Cl)cc34)cc2F)C1` [Example 149, 1-[5-[5-[(1R)-1-(3,5-dichloro-4-pyridyl)ethoxy]-1H-indazol-3-yl]-3-fluoro-2-pyridyl]-N-ethyl-3-methyl-azetidin-3-amine], the Kd at FGFR4, at FGFR1, on FGFR2, at FGFR3 and on FGFR3 (V555M) was 1 to 50 nM in each case. In addition, the IC50 in experiment [1], in experiment [2] and in experiment [3] was 0.1 to 50 nM each time.
For `C[C@@H](Oc1ccc2[nH]nc(-c3cnc(N4CC(C)(O)C4)c(F)c3)c2c1)c1c(Cl)cncc1Cl` [Example 154, 1-[5-[5-[(1R)-1-(3,5-dichloro-4-pyridyl)ethoxy]-1H-indazol-3-yl]-3-fluoro-2-pyridyl]-3-methyl-azetidin-3-ol], the Kd at FGFR4, on FGFR1, on FGFR2, at FGFR3 and at FGFR3 (V555M) was 1 to 50 nM in each case. Besides, the IC50 in experiment [1] was in the range of 50 to 200 nM; in experiment [2] it was 50 to 200 nM; in experiment [3], 0.1 to 50 nM.
Consider `C[C@@H](Oc1cc2c(-c3cnc(N4CC(C)(N5CCOCC5)C4)c(F)c3)n[nH]c2cc1F)c1c(Cl)cncc1Cl` [Example 158, (R)-4-(1-(5-(5-(1-(3,5-Dichloropyridin-4-yl)ethoxy)-6-fluoro-1H-indazol-3-yl)-3-fluoropyridin-2-yl)-3-methylazetidin-3-yl)morpholine], for which the Kd at FGFR4, on FGFR1, on FGFR2, on FGFR3 and at FGFR3 (V555M) was 1 to 50 nM each time. In addition, the IC50 lay in the range of 50 to 200 nM in experiment [1], 0.1 to 50 nM in experiment [2] and 0.1 to 50 nM in experiment [3].
As to `COc1cc2[nH]nc(-c3cnc(N4CC(C)(NCC(C)(C)O)C4)c(F)c3)c2cc1O[C@H](C)c1c(Cl)cncc1Cl` [Example 159], the Kd on FGFR4, at FGFR1, at FGFR2, on FGFR3 and on FGFR3 (V555M) was 1 to 50 nM each time. Moreover, the IC50 in experiment [1], in experiment [2] and in experiment [3] was 0.1 to 50 nM in each case.
As for `COc1cc2[nH]nc(-c3cnc(N4CC(C)(NC[C@H](C)O)C4)c(F)c3)c2cc1O[C@H](C)c1c(Cl)cncc1Cl` [Example 160, (S)-1-((1-(5-(5-((R)-1-(3,5-dichloropyridin-4-yl)ethoxy)-6-methoxy-1H-indazol-3-yl)-3-fluoropyridin-2-yl)-3-methylazetidin-3-yl)amino)propan-2-ol], the Kd on FGFR4, at FGFR1, at FGFR2, at FGFR3 and at FGFR3 (V555M) was 1 to 50 nM each time. For the same compound, the IC50 in experiment [1], in experiment [2] and in experiment [3] was 0.1 to 50 nM throughout.
Take `COc1cc2[nH]nc(-c3cnc(N4CC(C)(NC[C@@H](C)O)C4)c(F)c3)c2cc1O[C@H](C)c1c(Cl)cncc1Cl` [Example 161, (R)-1-((1-(5-(5-((R)-1-(3,5-dichloropyridin-4-yl)ethoxy)-6-methoxy-1H-indazol-3-yl)-3-fluoropyridin-2-yl)-3-methylazetidin-3-yl)amino)propan-2-ol]: the Kd on FGFR4, at FGFR1, at FGFR2, on FGFR3 and on FGFR3 (V555M) was 1 to 50 nM each time. Moreover, the IC50 in experiment [1], in experiment [2] and in experiment [3] was 0.1 to 50 nM throughout.
In the case of `C[C@@H](Oc1ccc2[nH]nc(-c3cnc(N4CC(C)(NCC(C)(C)O)C4)c(F)c3)c2c1F)c1c(Cl)cncc1Cl` [Example 170, (R)-1-((1-(5-(5-(1-(3,5-dichloro-pyridin-4-yl)ethoxy)-4-fluoro-1H-indazol-3-yl)-3-fluoropyridin-2-yl)-3-methylazetidin-3-yl)amino)-2-methylpropan-2-ol], the Kd on FGFR4 was 300 to 1000 nM; at FGFR1, more than 1000 nM; on FGFR2, more than 1000 nM; at FGFR3, 50 to 300 nM; at FGFR3 (V555M), 50 to 300 nM. For the same compound, the IC50 in experiment [1], in experiment [2] and in experiment [3] was more than 1000 nM each time.
Take `CNC1(C)CN(c2ncc(-c3n[nH]c4ccc(O[C@H](C)c5c(Cl)cncc5Cl)cc34)cc2F)C1` [Example 171, (R)-1-(5-(5-(1-(3,5-dichloropyridin-4-yl)ethoxy)-1H-indazol-3-yl)-3-fluoropyridin-2-yl)-N,3-dimethylazetidin-3-amine]: the Kd on FGFR4, on FGFR1, at FGFR2, at FGFR3 and at FGFR3 (V555M) was 1 to 50 nM throughout. Moreover, the IC50 in experiment [1], in experiment [2] and in experiment [3] was 0.1 to 50 nM in each case.

Source of the values: patent publication US20250368666A1, “INDAZOLE COMPOUNDS” (TYRA BIOSCIENCES, INC., priority 2022, published 2025).
